Measured values from ChEMBL document CHEMBL5584352, “Targeted Discovery of a Natural ortho-Quinone Methide Precursor and Green Generation of Its Oligomers” (J Nat Prod, 2024).
Values after ≈ are worked out from the molar mass of the structure shown. Active and inactive are the calls of the source. The rule behind the calls is not given here.

Legend:
HeLa = assay: Cytotoxicity against human HeLa cells assessed as reduction in cell viability incubated for 24 hrs by MTT assay; type: functional, cell-based
Escherichia coli = assay: Antibacterial activity against Escherichia coli ATCC 0111 assessed as reduction in bacterial growth incubated for 24 hrs by two fold serial dilution method; type: functional, organism-based
Staphylococcus aureus = assay: Antibacterial activity against Staphylococcus aureus 209P assessed as reduction in bacterial growth incubated for 24 hrs by two fold serial dilution method; type: functional

Row | MIC (Staphylococcus aureus) [mg/L] | SMILES | Activity (HeLa) | Activity (Escherichia coli) | Activity (Staphylococcus aureus) | IC50 (HeLa) [µM]
1 | – | CC(=O)[C@@H](C)c1cc(O)c(C)c(O)c1C=O | inactive | inactive | inactive | –
2 | – | Cc1c(C)c(C(=O)O)c(O)c(C)c1O | inactive | inactive | inactive | –
3 | – | CC(=O)[C@@H](C)c1cc(O)c(Cc2c(O)cc(O)c3c(O)c4c(=O)cc(C)oc4cc23)c(O)c1C=O | inactive | inactive | inactive | –
4 | 32 (≈ 66.9 µM) | CC(=O)[C@@H](C)c1cc(O)c(Cc2c3cc(O)cc(O)c3c(O)c3c(=O)cc(C)oc23)c(O)c1C=O | – | inactive | – | 12.4
5 | – | CC(=O)[C@@H](C)c1cc(O)c(Cc2c(C)c(C)c(O)c(C)c2O)c(O)c1C=O | inactive | inactive | inactive | –
6 | – | Cc1cc(=O)c2c(O)c3c(O)cc(O)cc3cc2o1 | inactive | inactive | inactive | –
7 | – | CC(=O)[C@@H](C)c1cc(O)c(Cc2c(O)cc(O)c(Cc3c(O)cc([C@H](C)C(C)=O)c(C=O)c3O)c2C)c(O)c1C=O | inactive | inactive | inactive | –
8 | – | CC(=O)[C@@H](C)c1cc(O)c(CO)c(O)c1C=O | inactive | inactive | inactive | –
9 | – | Cc1cc(O)c(C)c(O)c1C | inactive | inactive | inactive | –
10 | – | CC(=O)[C@@H](C)c1cc(O)c(Cc2c(C)cc(O)cc2O)c(O)c1C=O | inactive | inactive | inactive | –
